Measured values from US20110039721A1, “METHOD FOR PREDICTION ABOUT CARCINOGENICITY OF SUBSTANCE IN RODENT” (Chemicals Evaluation and Research Institute, priority 2007, published 2011).

Assays:
[1] = test system: mRNA expressed from the genes (A) to (D) in rat liver; assay: Behavior of genes (mRNA expression level, oligo-DNA microarray) in rat liver after 28-day oral administration; assay type: in vivo; settings: rat liver, oral once daily 28 days; for Behavior of gene caused by administration of chemical substance, Gene No. 4846 / Behavior of gene caused by administration of chemical substance, Gene No. 4218 / Behavior of gene caused by administration of chemical substance, Gene No. 2026 / Behavior of gene caused by administration of chemical substance, Gene No. 6182 / Behavior of gene caused by administration of chemical substance, Gene No. 5600: (A); for Behavior of gene caused by administration of chemical substance, Gene No. 4846: Unigene Rn.144554, defined direction +; for Behavior of gene caused by administration of chemical substance, Gene No. 4218: Unigene Rn.167075, defined direction +, significant = 1.5 times or more or 1/1.5 or less of control; for Behavior of gene caused by administration of chemical substance, Gene No. 2026: Unigene Rn.167075, defined direction −; for Behavior of gene caused by administration of chemical substance, Gene No. 6182: Unigene Rn.5834, defined direction +; for Behavior of gene caused by administration of chemical substance, Gene No. 5600: Unigene Rn.9836, defined direction +; for Behavior of gene caused by administration of chemical substance, Gene No. 1494 / Behavior of gene caused by administration of chemical substance, Gene No. 2045 / Behavior of gene caused by administration of chemical substance, Gene No. 2203: (B); for Behavior of gene caused by administration of chemical substance, Gene No. 1494: Unigene Rn.1430, defined direction −; for Behavior of gene caused by administration of chemical substance, Gene No. 2045: Unigene Rn.19329, defined direction +; for Behavior of gene caused by administration of chemical substance, Gene No. 2203: Unigene Rn.21240, defined direction +; for Behavior of gene caused by administration of chemical substance, Gene No. 533 / Behavior of gene caused by administration of chemical substance, Gene No. 725 / Behavior of gene caused by administration of chemical substance, Gene No. 1163 / Behavior of gene caused by administration of chemical substance, Gene No. 4973 / Behavior of gene caused by administration of chemical substance, Gene No. 4095 / Behavior of gene caused by administration of chemical substance, Gene No. 1334 / Behavior of gene caused by administration of chemical substance, Gene No. 6620 / Behavior of gene caused by administration of chemical substance, Gene No. 6303 / Behavior of gene caused by administration of chemical substance, Gene No. 5878 / Behavior of gene caused by administration of chemical substance, Gene No. 1131 / Behavior of gene caused by administration of chemical substance, Gene No. 1562 / Behavior of gene caused by administration of chemical substance, Gene No. 1741 / Behavior of gene caused by administration of chemical substance, Gene No. 893 / Behavior of gene caused by administration of chemical substance, Gene No. 6026 / Behavior of gene caused by administration of chemical substance, Gene No. 154 / Behavior of gene caused by administration of chemical substance, Gene No. 1993 / Behavior of gene caused by administration of chemical substance, Gene No. 813 / Behavior of gene caused by administration of chemical substance, Gene No. 2494 / Behavior of gene caused by administration of chemical substance, Gene No. 2546 / Behavior of gene caused by administration of chemical substance, Gene No. 3776 / Behavior of gene caused by administration of chemical substance, Gene No. 3929 / Behavior of gene caused by administration of chemical substance, Gene No. 1119 / Behavior of gene caused by administration of chemical substance, Gene No. 6742 / Behavior of gene caused by administration of chemical substance, Gene No. 5634: (C); for Behavior of gene caused by administration of chemical substance, Gene No. 533: Unigene Rn.106184, defined direction +; for Behavior of gene caused by administration of chemical substance, Gene No. 725: Unigene Rn.108075, defined direction −; for Behavior of gene caused by administration of chemical substance, Gene No. 1163: Unigene Rn.11766, defined direction +; for Behavior of gene caused by administration of chemical substance, Gene No. 4973: Unigene Rn.118529, defined direction −; for Behavior of gene caused by administration of chemical substance, Gene No. 4095: Unigene Rn.119024, defined direction −; for Behavior of gene caused by administration of chemical substance, Gene No. 1334 / Behavior of gene caused by administration of chemical substance, Gene No. 6620: Unigene Rn.120914, defined direction +; for Behavior of gene caused by administration of chemical substance, Gene No. 6303: Unigene Rn.123063, defined direction −; for Behavior of gene caused by administration of chemical substance, Gene No. 5878: Unigene Rn.143213, defined direction −; for Behavior of gene caused by administration of chemical substance, Gene No. 1131: Unigene Rn.144946, defined direction −; for Behavior of gene caused by administration of chemical substance, Gene No. 1562: Unigene Rn.14744, defined direction −; for Behavior of gene caused by administration of chemical substance, Gene No. 1741: Unigene Rn.1647, defined direction −; for Behavior of gene caused by administration of chemical substance, Gene No. 893: Unigene Rn.164817, defined direction +; for Behavior of gene caused by administration of chemical substance, Gene No. 6026: Unigene Rn.167685, defined direction −; for Behavior of gene caused by administration of chemical substance, Gene No. 154: Unigene Rn.185941, defined direction −; for Behavior of gene caused by administration of chemical substance, Gene No. 1993: Unigene Rn.18728, defined direction −; for Behavior of gene caused by administration of chemical substance, Gene No. 813: Unigene Rn.201760, defined direction +; for Behavior of gene caused by administration of chemical substance, Gene No. 2494: Unigene Rn.23969, defined direction +; for Behavior of gene caused by administration of chemical substance, Gene No. 2546: Unigene Rn.24561, defined direction −; for Behavior of gene caused by administration of chemical substance, Gene No. 3776: Unigene Rn.43232, defined direction −; for Behavior of gene caused by administration of chemical substance, Gene No. 3929: Unigene Rn.4620, defined direction +; for Behavior of gene caused by administration of chemical substance, Gene No. 1119: Unigene Rn.9757, defined direction +; for Behavior of gene caused by administration of chemical substance, Gene No. 6742: Unigene Rn.9779, defined direction +; for Behavior of gene caused by administration of chemical substance, Gene No. 5634: Unigene Rn.9862, defined direction −; for Behavior of gene caused by administration of chemical substance, Gene No. 5726: (D), Unigene Rn.9939, defined direction −
Summary of the method: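 Groups of four male F344 SPF rats aged 5 weeks are gavaged once a day for 28 days with test chemical in solvent or with solvent alone at equal volume. Total RNA comes from liver taken on day 28. Fold change of 1.5 or 1/1.5 versus control, directionally consistent, defines significance.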

liver = settings: in vivo; cited from earlier work
rodent = settings: in vivo; cited from earlier work

Row | Structure (SMILES) | Behavior of gene caused by administration of chemical substance, Gene No. 4846 [1] | Behavior of gene caused by administration of chemical substance, Gene No. 4218 [1] | Behavior of gene caused by administration of chemical substance, Gene No. 2026 [1] | Behavior of gene caused by administration of chemical substance, Gene No. 6182 [1] | Behavior of gene caused by administration of chemical substance, Gene No. 5600 [1] | Behavior of gene caused by administration of chemical substance, Gene No. 1494 [1] | Behavior of gene caused by administration of chemical substance, Gene No. 2045 [1] | Behavior of gene caused by administration of chemical substance, Gene No. 2203 [1] | Behavior of gene caused by administration of chemical substance, Gene No. 533 [1] | Behavior of gene caused by administration of chemical substance, Gene No. 725 [1] | Behavior of gene caused by administration of chemical substance, Gene No. 1163 [1] | Behavior of gene caused by administration of chemical substance, Gene No. 4973 [1] | Behavior of gene caused by administration of chemical substance, Gene No. 4095 [1] | Behavior of gene caused by administration of chemical substance, Gene No. 1334 [1] | Behavior of gene caused by administration of chemical substance, Gene No. 6620 [1] | Behavior of gene caused by administration of chemical substance, Gene No. 6303 [1] | Behavior of gene caused by administration of chemical substance, Gene No. 5878 [1] | Behavior of gene caused by administration of chemical substance, Gene No. 1131 [1] | Behavior of gene caused by administration of chemical substance, Gene No. 1562 [1] | Behavior of gene caused by administration of chemical substance, Gene No. 1741 [1] | other results
1 | O=NN1CCCCC1 [TS042, N-Nitrosopiperidine] | + | + | + | + | + | + | − | − | + | − | − | − | − | − | − | + | − | + | + | − | Behavior of gene caused by administration of chemical substance, Gene No. 893 [1]: −; Behavior of gene caused by administration of chemical substance, Gene No. 6026 [1]: −; Behavior of gene caused by administration of chemical substance, Gene No. 154 [1]: −; Behavior of gene caused by administration of chemical substance, Gene No. 1993 [1]: +; Behavior of gene caused by administration of chemical substance, Gene No. 813 [1]: +; Behavior of gene caused by administration of chemical substance, Gene No. 2494 [1]: −; Behavior of gene caused by administration of chemical substance, Gene No. 2546 [1]: −; Behavior of gene caused by administration of chemical substance, Gene No. 3776 [1]: −; Behavior of gene caused by administration of chemical substance, Gene No. 3929 [1]: −; Behavior of gene caused by administration of chemical substance, Gene No. 1119 [1]: −; Behavior of gene caused by administration of chemical substance, Gene No. 6742 [1]: −; Behavior of gene caused by administration of chemical substance, Gene No. 5634 [1]: −; Behavior of gene caused by administration of chemical substance, Gene No. 5726 [1]: +; Liver carcinogenicity (liver): Cr+; Carcinogenicity (rodent): C+
2 | CC(=O)Nc1ccc2c(c1)Cc1ccccc1-2 [TS043, 2-Acetylaminofluorene] | + | + | + | + | + | − | − | − | − | + | + | + | + | − | − | + | − | − | + | − | Behavior of gene caused by administration of chemical substance, Gene No. 893 [1]: +; Behavior of gene caused by administration of chemical substance, Gene No. 6026 [1]: −; Behavior of gene caused by administration of chemical substance, Gene No. 154 [1]: −; Behavior of gene caused by administration of chemical substance, Gene No. 1993 [1]: +; Behavior of gene caused by administration of chemical substance, Gene No. 813 [1]: −; Behavior of gene caused by administration of chemical substance, Gene No. 2494 [1]: −; Behavior of gene caused by administration of chemical substance, Gene No. 2546 [1]: −; Behavior of gene caused by administration of chemical substance, Gene No. 3776 [1]: −; Behavior of gene caused by administration of chemical substance, Gene No. 3929 [1]: −; Behavior of gene caused by administration of chemical substance, Gene No. 1119 [1]: −; Behavior of gene caused by administration of chemical substance, Gene No. 6742 [1]: −; Behavior of gene caused by administration of chemical substance, Gene No. 5634 [1]: −; Behavior of gene caused by administration of chemical substance, Gene No. 5726 [1]: −; Liver carcinogenicity (liver): Cr+; Carcinogenicity (rodent): C+
